# Where two headings read alike, the source gives them in different places.
# Key:
# barnacle larvae = test system: barnacle larvae; design: method as in PMID 17713818; details: cited from earlier work
# [1] = target: blue mussel phenoloxidase (PO); test: Blue mussel PO inhibition assay; format: biochemical, Mytilus edulis; details: for IC50: purified enzyme, 25 °C, 10 mM L-DOPA, 50 mM phosphate buffer pH 6.8, 2 h incubation, triplicate; for enzyme inhibitory activity towards blue mussel PO (in words): compared to DBHB (1)
# Description: PO activity was measured spectrophotometrically as described earlier. The purified enzyme was incubated at 25 °C with 10 mM L-DOPA in 50 mM phosphate buffer of pH 6.8. PO activity was determined by monitoring the increase of absorbance at 475 nm. One unit of enzyme activity was defined as the amount of enzyme that catalyzes the formation of 1 μmol dopachrome per minute under the described experimental conditions. Hemibastadin congeners were added to the assay at concentrations of up to 50 μg/mL. In addition, the biocide TBT (10 μg/mL) was used as a positive standard. Aliquots of pure enzyme were incubated for 2 h with hemibastadin analogues, then the enzyme activity was recorded with L-DOPA or catechol (10 mM) as substrates. All assays were run in triplicate. The results are presented as the concentration of compounds that reduces enzyme velocity by 50% (IC50 values). IC50 values were calculated using MINITAB (Version 14).
# [2] = target: blue mussel phenoloxidase (PO); design: method as in PMID 21547349; details: cited from earlier work; for IC50: data derived from a previous investigation, read-out: IC50, inhibition of blue mussel phenoloxidase (PO)
Compound,IC50 [1],further results
"O=C(NCCc1cc(Br)c(O)c(Br)c1)/C(Cc1cc(Br)c(O)c(Br)c1)=N/O [Compound 1, 5,5′-dibromohemibastadin-1]",0.81 µM,antifouling activity (in words) (barnacle larvae): strong antifouling activity
"O=C(NCCc1ccc(O)cc1)/C(Cc1ccc(O)cc1)=N/O [Compound 2, Norbromohemibastadin-1]",,IC50 [2]: 2.41 µM
"NC(Cc1ccc(O)cc1)C(=O)NCCc1ccc(O)cc1 (stereo not shown) [Compound 3, Tyrosinyltyramine]",,inhibition of blue mussel PO (in words) [2]: completely inactive; IC50 [2]: > 100 µM
"O=C(NCCc1cc(I)c(O)c(I)c1)/C(Cc1cc(I)c(O)c(I)c1)=N/O [Compound 4, Tetraiodo-norbromohemibastadin-1]",1.14 µM,
"O=C(NCCc1cc(Cl)c(O)c(Cl)c1)/C(Cc1cc(Cl)c(O)c(Cl)c1)=N/O [Compound 5, Tetrachloro-norbromohemibastadin-1]",1.19 µM,
"CO/N=C(\Cc1cc(Br)c(OC)c(Br)c1)C(=O)NCCc1cc(Br)c(OC)c(Br)c1 [Compound 6, Tri-O-methyl-5,5′-dibromohemibastadin-1]",18.9 ± 0.77 µM,reduction of the enzyme inhibitory activity compared to the parent compound 1 ([1]; relative to DBHB (1)): more than twenty-fold
"O=C(NC1CCCCC1)/C(Cc1cc(Br)c(O)c(Br)c1)=N/O [Compound 7, N-cyclohexyl-3-(3,5-dibromo-4-hydroxyphenyl)-2-(2-hydroxyimino)-propanamide]",11.7 ± 0.49 µM,
"CC(C)CNC(=O)/C(Cc1cc(Br)c(O)c(Br)c1)=N/O [Compound 8, N-(2-methyl-propyl)-3-(3,5-dibromo-4-hydroxyphenyl)-2-(2-hydroxyimino)-propanamide]",17.2 ± 0.76 µM,
"CCCCCCNC(=O)/C(Cc1cc(Br)c(O)c(Br)c1)=N/O [Compound 9, N-hexyl-3-(3,5-dibromo-4-hydroxyphenyl)-2-(2-hydroxyimino)-propanamide]",16.3 ± 0.83 µM,
"O=C(NCCc1ccccc1)/C(Cc1cc(Br)c(O)c(Br)c1)=N/O [Compound 10, N-2-phenylethyl-3-(3,5-dibromo-4-hydroxyphenyl)-2-(2-hydroxyimino)-propanamide]",22.7 ± 0.88 µM,enzyme inhibitory activity towards blue mussel PO (in words) [1]: strong reduction of inhibitory activity
"O=C(NCCc1c[nH]cn1)/C(Cc1cc(Br)c(O)c(Br)c1)=N/O [Compound 11, N-[2-(4-imidazolyl)-ethyl]-3-(3,5-dibromo-4-hydroxyphenyl)-2-(2-hydroxyimino)-propanamide]",33.2 ± 1.72 µM,melting point: 130 °C
"O=C(NCCc1c[nH]c2ccccc12)/C(Cc1cc(Br)c(O)c(Br)c1)=N/O [Compound 12, N-[2-(3-indolyl)-ethyl]-3-(3,5-dibromo-4-hydroxyphenyl)-2-(2-hydroxyimino)-propanamide]",> 100 µM,enzyme inhibitory activity towards blue mussel PO (in words) [1]: complete loss of activity
"CC(=O)C(C)=NO [Compound 13, 2,3-butanedione monoxime, reference compound]",,IC50 [2]: 8.7 µM
